According to US20230061417A1, “THIENOPYRIMIDINE DERIVATIVES AS LPA RECEPTOR 2 INHIBITORS” (CHIESI FARMACEUTICI S.P.A., priority 2019, published 2023):

Target: T1, human recombinant LPA2 (Homo sapiens, UniProt Q9HBW0)
T1 construct: expressed in transfected cells; host or cells: CHO (CHO-hLPA2 cell line)
Assay: FLIPR calcium mobilization assay, LPA2 antagonism in CHO-hLPA2 cells
Format: cell-based
Settings: human recombinant LPA2 in CHO cells, LPA EC80 stimulation, 30 min pre-incubation; read-out: LPA2 IC50
Description: The effectiveness of compounds of the present invention as LPA2 antagonist can be determined at the human recombinant LPA2 expressed in CHO cells, using a FLIPR assay in 384 well format.
CHO-hLPA2 cell lines are cultured in a humidified incubator at 5% CO2 in DMEM/F-12 (1:1) MIXTURE with 2 mM Glutamax, supplemented with 10% of Foetal Bovine Serum, 1 mM Sodium Pyruvate, 11 mM Hepes and 1× Penicillin/Streptomycin. CHO hLPA2 cells are seeded into black walled clear-bottom 384-well plates (#781091, Greiner Bio-One GmbH) at a density of 7,500 cells per well in 50 μl culture media and grown overnight in a 37° C. humidified CO2-incubator. Serial dilutions (1:3 or 1:4, 11 points CRC) of compounds are performed in 100% DMSO at 200× the final concentration. The compounds are diluted 1:50 prior to the experiment with Assay Buffer (20 mM HEPES, 145 mM NaCl, 5 mM KCl, 5.5 mM glucose, 1 mM MgCl2 and 2 mM CaCl2, pH 7.4 containing 0.01% Pluronic F-127) to obtain a solution corresponding to […] the final concentration in the assay (4×, 2% DMSO). The final concentration of DMSO in the assay will be 0.5% in each well. Medium is removed by aspiration and cells are then incubated with 30 μl of a loading solution containing 5 μM of the cytoplasmic Ca2+ indicator Cal-520 AM in Assay Buffer containing 2.5 mM probenecid for 30 min at 37° C. incubator (cell loading). The loaded cell plates are transferred into the FLIPR instrument and calcium responses are monitored during the on-line addition protocols. For testing of compounds, after the cell loading, 10 μl/well of 4× antagonists' solution was added onto the cells. After 30 min pre-incubation (at 37° C.), 10 μl/well of 5× concentrated LPA EC80 was added and Ca2+ mobilization responses was followed during the on-line addition protocol. Intracellular peak fluorescence values subtracted by baseline fluorescence are exported and analysed to determine IC50 values, respectively. The calcium response is expressed as percentage of the maximal inhibition of the EC80 agonist response.
The raw data (peak height expressed as relative fluorescence units) are normalized and transformed into “percent of inhibition”. Curve fitting and pIC50 (−Log IC50) estimations are carried out using a four-parameter logistic model using XLfit Software.

T1 sequence (Q9HBW0 whole entry): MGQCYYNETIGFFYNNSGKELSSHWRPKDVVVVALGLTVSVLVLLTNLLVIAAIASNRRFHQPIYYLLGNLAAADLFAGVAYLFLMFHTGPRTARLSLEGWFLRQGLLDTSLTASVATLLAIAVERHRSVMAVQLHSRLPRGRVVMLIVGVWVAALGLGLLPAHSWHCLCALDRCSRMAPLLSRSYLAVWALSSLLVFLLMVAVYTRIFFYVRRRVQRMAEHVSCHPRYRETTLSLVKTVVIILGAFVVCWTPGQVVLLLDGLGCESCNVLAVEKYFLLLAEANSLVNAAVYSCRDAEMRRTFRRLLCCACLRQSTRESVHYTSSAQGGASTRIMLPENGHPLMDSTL

Row | SMILES | IC50 [nM]
1 | Cc1csc2c(N[C@@H](C)CN3CCN(S(=O)(=O)c4cc(Br)c(Cl)s4)CC3)ncnc12 [Example 10, N-[(2S)-1-{4-[(4-bromo-5-chlorothiophen-2-yl)sulfonyl]piperazin-1-yl}propan-2-yl]-7-methylthieno[3,2-d]pyrimidin-4-amine] | < 1000
2 | CC(=O)Nc1ncc(S(=O)(=O)N2CCN(C[C@H](C)Nc3nc(C4CC4)nc4c(C)csc34)CC2)s1 [Example 22, N-[5-({4-[(2S)-2-({2-cyclopropyl-7-methylthieno[3,2-d]pyrimidin-4-yl}amino)propyl]piperazin-1-yl}sulfonyl)-1,3-thiazol-2-yl]acetamide] | < 1000
3 | COC(=O)Nc1nc(C)c(S(=O)(=O)N2CCN(C[C@H](C)Nc3nc(C4CC4)nc4c(C)csc34)CC2)s1 [Example 31, methyl N-[5-({4-[(2S)-2-({2-cyclopropyl-7-methylthieno[3,2-d]pyrimidin-4-yl}amino)propyl]piperazin-1-yl}sulfonyl)-4-methyl-1,3-thiazol-2-yl]carbamate] | 10 to 100
4 | COC(=O)Nc1nc(C)c(S(=O)(=O)N2CCN(C[C@H](C)Nc3ncnc4c(C)csc34)CC2)s1 [Example 20, methyl N-[4-methyl-5-({4-[(2S)-2-({7-methylthieno[3,2-d]pyrimidin-4-yl}amino)propyl]piperazin-1-yl}sulfonyl)-1,3-thiazol-2-yl]carbamate] | < 1000
5 | CCc1nc(N[C@@H](C)CN2CCN(S(=O)(=O)c3sc(NC(C)=O)nc3C)CC2)c2scc(C)c2n1 [Example 36, N-[5-({4-[(2S)-2-({2-ethyl-7-methylthieno[3,2-d]pyrimidin-4-yl}amino)propyl]piperazin-1-yl}sulfonyl)-4-methyl-1,3-thiazol-2-yl]acetamide] | < 1000
6 | CCc1nc(N[C@@H](C)CN2CCN(S(=O)(=O)c3sc(NC(=O)OC)nc3C)CC2)c2scc(C)c2n1 [Example 38, methyl N-[5-({4-[(2S)-2-({2-ethyl-7-methylthieno[3,2-d]pyrimidin-4-yl}amino)propyl]piperazin-1-yl}sulfonyl)-4-methyl-1,3-thiazol-2-yl]carbamate] | 10 to 100
7 | COC(=O)Nc1nc(C)c(S(=O)(=O)N2CCN(C[C@H](C)Nc3ncnc4c(C(F)(F)F)csc34)CC2)s1 [Example 1, methyl N-[4-methyl-5-({4-[(2S)-2-{[7-(trifluoromethyl)thieno[3,2-d]pyrimidin-4-yl]amino}propyl]piperazin-1-yl}sulfonyl)-1,3-thiazol-2-yl]carbamate] | 10 to 100
8 | COC(=O)Nc1nc(C)c(S(=O)(=O)N2CCN(C[C@H](C)Nc3nc(Cl)nc4c(C(F)(F)F)csc34)CC2)s1 [Example 32, methyl N-[5-({4-[(2S)-2-{[2-chloro-7-(trifluoromethyl)thieno[3,2-d]pyrimidin-4-yl]amino}propyl]piperazin-1-yl}sulfonyl)-4-methyl-1,3-thiazol-2-yl]carbamate] | < 1000
9 | Cc1csc2c(N[C@@H](C)CN3CCN(S(=O)(=O)c4ccc(F)c(Cl)c4)CC3)ncnc12 [Example 9, N-[(2S)-1-[4-(3-chloro-4-fluorobenzenesulfonyl)piperazin-1-yl]propan-2-yl]-7-methylthieno[3,2-d]pyrimidin-4-amine] | < 1000
10 | Cc1csc2c(N[C@@H](C)CN3CCN(S(=O)(=O)c4ccc(Br)c(Cl)c4)CC3)ncnc12 [Example 11, N-[(2S)-1-[4-(4-bromo-3-chlorobenzenesulfonyl)piperazin-1-yl]propan-2-yl]-7-methylthieno[3,2-d]pyrimidin-4-amine] | < 1000
